Details: not told
From the text: In each of the determinations mentioned above, samples of the liquid contained in the receiver compartment were taken after determined durations and, by assaying the antifactor Xa activity of the said samples, the quantity of pentasaccharide which has passed into the receiver compartment through the membrane was obtained.

Which “Permeability (to pentasaccharide), passive” value does the source give for polyamide-11 here?
The value was ~ 0 μg/cm^2.

— US6064908A, “Device for ionophoresis comprising at least a membrane electrode assembly, for the transcutaneous administration of active principles to a subject” (Elf Aquitaine, priority 1996, dated 2000)
